In US6297267A, “4,5-diaryloxazole compounds” (Fujisawa Pharmaceutical Co., Ltd., priority 1997, dated 2001):

Each compound was assayed on Human Platelet (assay: Inhibition of Human Platelet Aggregation Induced by ADP). Settings: 2 min; Test Compound 1.0 × 10^-7 M; human platelet rich plasma; ADP 2.5 μM; 2 minutes at 37° C.
Assay type: cell-based
Procedure: Inhibition of Human Platelet Aggregation Induced by ADP
Human blood was collected from healthy volunteers and mixed with 1/10 volume of 3.8% sodium citrate solution, pH 7.4. The citrate blood was centrifuged at 150×g for 10 minutes and the platelet rich plasma (PRP) was removed. The remaining blood was centrifuged for a further 10 minutes at 1500×g to prepare the platelet poor plasma (PPP), which was used as a reference for platelet aggregation. Aggregation studies were carried out using HEMATRACER 801 (NBS, Japan), a 8 channel aggregometer. 25 μl of a solution of Test compound in Tris-acetate buffer pH 7.4 and 225 μl of PRP were mixed and stirred at 1000 rpm for 2 minutes at 37° C. Aggregation was induced by ADP (adenosin 5'-diphosphate) solution at the final concentration of 2.5 μM.

Row | Structure (SMILES) | inhibition at 0.1 µM
1 | O=C(O)COc1cccc(CC2(O)CCCC=C2c2nc(-c3ccccc3)c(-c3ccccc3)o2)c1 (stereo not drawn) [(1)] | > 90%
2 | O=C(O)COc1cccc(C[C@@H]2CCCC3OC32c2nc(-c3ccccc3)c(-c3ccccc3)o2)c1 (stereo partly drawn) [(3)] | > 90%
3 | O=C(O)COc1cccc(C[C@@H]2CCC(O)C=C2c2nc(-c3ccccc3)c(-c3ccccc3)o2)c1 (stereo partly drawn) [(2)] | > 90%
